Experimental data published in patent publication US11986532B2 (Arvinas Operations, Inc., priority 2021, dated 2024).
Where two headings read alike, the source gives them in different places.

Target: T1, BCL6 (Homo sapiens, UniProt P41182)
T1 construct: endogenous in cells; host or cells: T47D breast cancer epithelial cells
Assay: Immunofluorescence protocol for high content imaging of BCL6 (degradation) in T47D cells, 3 days compound treatment
Assay type: cell-based
Conditions: for Dmax: read-out: Mean Dmax (%)** category; for DC50: read-out: Mean DC50 (nM)* category
Method in brief: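 Cells are seeded to reach ~70-90% confluence at endpoint, then dosed next day with compound at a final top concentration of 0.1 or 1 μM (11 points, 3-fold). After 3 days, BCL6 is detected by immunofluorescence and quantified by high-content imaging.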

[1] = T47D cells, 3 days compound treatment

Compound	DC50 [1] [nM]	Dmax [1] [%]	Dmax (T47D) [%]	DC50 [nM]
CNC(=O)COc1cc2cc(Nc3nc(N4CCC(O[C@H]5C[C@H](N6CC7(CCN7c7cccc8c7C(=O)N(C7CCC(=O)NC7=O)C8)C6)C5)CC4)ncc3Cl)ccc2n(C(C)C)c1=O (stereo partly shown) [Compound 310, 2-({6-[(5-chloro-2-{4-[(1r,3r)-3-{1-[2-(2,6-dioxopiperidin-3-yl)-3-oxo-2,3-dihydro-1H-isoindol-4-yl]-1,6-diazaspiro[3.3]heptan-6-yl}cyclobutoxy]piperidin-1-yl}pyrimidin-4-yl)amino]-2-oxo-1-(propan-2-yl)-1,2-dihydroquinolin-3-yl}oxy)-N-methylacetamide]			50 to 70	< 10
CNC(=O)COc1cc2cc(Nc3nc(N4CCC(OC5CCC6(CC5)CN(c5c(F)cc7c(c5F)CN(C5CCC(=O)NC5=O)C7=O)C6)CC4)ncc3Cl)ccc2n(C(C)C)c1=O (stereo not shown) [Compound 324, 2-{[6-({5-chloro-2-[4-({2-[2-(2,6-dioxopiperidin-3-yl)-4,6-difluoro-1-oxo-2,3-dihydro-1H-isoindol-5-yl]-2-azaspiro[3.5]nonan-7-yl}oxy)piperidin-1-yl]pyrimidin-4-yl}amino)-2-oxo-1-(propan-2-yl)-1,2-dihydroquinolin-3-yl]oxy}-N-methylacetamide]			50 to 70	< 10
CNC(=O)COc1cc2cc(Nc3nc(N4CCC(CN5CC(N6CCN(c7ccc8c(c7)C(=O)N(C7CCC(=O)NC7=O)C8=O)CC6)C5)CC4)ncc3Cl)ccc2n(C(C)C)c1=O (stereo not shown) [Compound 241, 2-({6-[(5-chloro-2-{4-[(3-{4-[2-(2,6-dioxopiperidin-3-yl)-1,3-dioxo-2,3-dihydro-1H-isoindol-5-yl]piperazin-1-yl}azetidin-1-yl)methyl]piperidin-1-yl}pyrimidin-4-yl)amino]-2-oxo-1-(propan-2-yl)-1,2-dihydroquinolin-3-yl}oxy)-N-methylacetamide]			≥ 70	10 to 50
CNC(=O)COc1cc2cc(Nc3nc(N4CCC(O[C@H]5C[C@H](N6C7CCC6CN(c6ccc8c(c6F)CN(C6CCC(=O)NC6=O)C8=O)C7)C5)CC4)ncc3Cl)ccc2n(C(C)C)c1=O (stereo partly shown) [Compound 406, 2-({6-[(5-chloro-2-{4-[(1r,3r)-3-{3-[2-(2,6-dioxopiperidin-3-yl)-4-fluoro-1-oxo-2,3-dihydro-1H-isoindol-5-yl]-3,8-diazabicyclo [3.2.1]octan-8-yl}cyclobutoxy]piperidin-1-yl}pyrimidin-4-yl)amino]-2-oxo-1-(propan-2-yl)-1,2-dihydroquinolin-3-yl}oxy)-N-methylacetamide]			50 to 70	< 10
CNC(=O)COc1cc2cc(Nc3nc(N4CCC(O[C@H]5C[C@H](N6CCC(c7ccc8c(c7)C(=O)N(C7CCC(=O)NC7=O)C8=O)C(C)(C)C6)C5)CC4)ncc3Cl)ccc2n(C(C)C)c1=O (stereo partly shown) [Compound 399, 2-({6-[(5-chloro-2-{4-[(1r,3r)-3-{4-[2-(2,6-dioxopiperidin-3-yl)-1,3-dioxo-2,3-dihydro-1H-isoindol-5-yl]-3,3-dimethylpiperidin-1-yl}cyclobutoxy]piperidin-1-yl}pyrimidin-4-yl)amino]-2-oxo-1-(propan-2-yl)-1,2-dihydroquinolin-3-yl}oxy)-N-methylacetamide]			≥ 70	10 to 50
CNC(=O)COc1cc2c(F)c(Nc3nc(N4CCC(CN5CCC6(CC5)CN(c5ccc7c(c5)C(=O)N(C5CCC(=O)NC5=O)C7=O)C6(C)C)CC4)ncc3Cl)ccc2n(C(C)C)c1=O (stereo not shown) [Compound 375, 2-{[6-({5-chloro-2-[4-({2-[2-(2,6-dioxopiperidin-3-yl)-1,3-dioxo-2,3-dihydro-1H-isoindol-5-yl]-1,1-dimethyl-2,7-diazaspiro[3.5]nonan-7-yl}methyl)piperidin-1-yl]pyrimidin-4-yl}amino)-5-fluoro-2-oxo-1-(propan-2-yl)-1,2-dihydroquinolin-3-yl]oxy}-N-methylacetamide]			≥ 70	< 10
CNC(=O)COc1cc2cc(Nc3nc(N4CCC(O[C@H]5C[C@H](N6CC7(CCN(c8ccc9c(c8)C(=O)N(C8CCC(=O)NC8=O)C9)CC7)C6)C5)CC4)ncc3Cl)ccc2n(C(C)C)c1=O (stereo partly shown) [Compound 377, 2-({6-[(5-chloro-2-{4-[(1r,3r)-3-{7-[2-(2,6-dioxopiperidin-3-yl)-3-oxo-2,3-dihydro-1H-isoindol-5-yl]-2,7-diazaspiro[3.5]nonan-2-yl}cyclobutoxy]piperidin-1-yl}pyrimidin-4-yl)amino]-2-oxo-1-(propan-2-yl)-1,2-dihydroquinolin-3-yl}oxy)-N-methylacetamide]			≥ 70	50 to 100
CNC(=O)COc1cc2cc(Nc3nc(N4CCC(O[C@H]5C[C@H](N6CC7CCC(C6)N7c6ccc7c(c6)CN(C6CCC(=O)NC6=O)C7=O)C5)CC4)ncc3Cl)ccc2n(C(C)C)c1=O (stereo partly shown) [Compound 371, 2-({6-[(5-chloro-2-{4-[(1r,3r)-3-{8-[2-(2,6-dioxopiperidin-3-yl)-1-oxo-2,3-dihydro-1H-isoindol-5-yl]-3,8-diazabicyclo[3.2.1]octan-3-yl}cyclobutoxy]piperidin-1-yl}pyrimidin-4-yl)amino]-2-oxo-1-(propan-2-yl)-1,2-dihydroquinolin-3-yl}oxy)-N-methylacetamide]			< 50	< 10
CNC(=O)COc1cc2cc(Nc3nc(N4CCC(O[C@H]5C[C@H](N6CCC(F)(c7ccc8c(c7F)CN(C7CCC(=O)NC7=O)C8=O)CC6)C5)CC4)ncc3Cl)ccc2n(C(C)C)c1=O (stereo partly shown) [Compound 278, 2-({6-[(5-chloro-2-{4-[(1r,3r)-3-{4-[2-(2,6-dioxopiperidin-3-yl)-4-fluoro-1-oxo-2,3-dihydro-1H-isoindol-5-yl]-4-fluoropiperidin-1-yl}cyclobutoxy]piperidin-1-yl}pyrimidin-4-yl)amino]-2-oxo-1-(propan-2-yl)-1,2-dihydroquinolin-3-yl}oxy)-N-methylacetamide]			≥ 70	< 10
CNC(=O)COc1cc2c(F)c(Nc3nc(N4CCC(O[C@H]5C[C@H](N6CCC(c7ccc8c(c7F)CN([C@H]7CCC(=O)NC7=O)C8=O)CC6)C5)CC4)ncc3Cl)ccc2n(C(C)C)c1=O [Compound 380, 2-({6-[(5-chloro-2-{4-[(1r,3r)-3-(4-{2-[(3S)-2,6-dioxopiperidin-3-yl]-4-fluoro-1-oxo-2,3-dihydro-1H-isoindol-5-yl}piperidin-1-yl)cyclobutoxy]piperidin-1-yl}pyrimidin-4-yl)amino]-5-fluoro-2-oxo-1-(propan-2-yl)-1,2-dihydroquinolin-3-yl}oxy)-N-methylacetamide]			50 to 70	< 10
CNC(=O)COc1cc2cc(Nc3nc(N4CCC(O[C@H]5C[C@H](N6CCC(O)(c7ccc8c(c7F)CN(C7CCC(=O)NC7=O)C8=O)CC6)C5)CC4)ncc3Cl)ccc2n(C(C)C)c1=O (stereo partly shown) [Compound 277, 2-({6-[(5-chloro-2-{4-[(1r,3r)-3-{4-[2-(2,6-dioxopiperidin-3-yl)-4-fluoro-1-oxo-2,3-dihydro-1H-isoindol-5-yl]-4-hydroxypiperidin-1-yl}cyclobutoxy]piperidin-1-yl}pyrimidin-4-yl)amino]-2-oxo-1-(propan-2-yl)-1,2-dihydroquinolin-3-yl}oxy)-N-methylacetamide]			50 to 70	< 10

Second part, led by results:

DC50 [1] [nM]	Dmax [1] [%]	Compound	Dmax (T47D) [%]	DC50 [nM]
< 10	50 to 70	CNC(=O)COc1cc2cc(Nc3nc(N4CCC(CN5CCC6(CN(c7cc8c(cc7F)C(=O)N(C7CCC(=O)NC7=O)C8)C6)C(F)(F)C5)CC4)ncc3Cl)ccc2n(C(C)C)c1=O (stereo not shown) [Compound 100, 2-{[6-({5-chloro-2-[4-({2-[2-(2,6-dioxopiperidin-3-yl)-6-fluoro-1-oxo-2,3-dihydro-1H-isoindol-5-yl]-5,5-difluoro-2,7-diazaspiro[3.5]nonan-7-yl}methyl)piperidin-1-yl]pyrimidin-4-yl}amino)-2-oxo-1-(propan-2-yl)-1,2-dihydroquinolin-3-yl]oxy}-N-methylacetamide]		
< 10	50 to 70	CNC(=O)COc1cc2cc(Nc3nc(N4CCC(O[C@H]5C[C@H](N6CC[C@H](c7ccc8c(c7)CN(C7CCC(=O)NC7=O)C8=O)[C@H](F)C6)C5)CC4)ncc3Cl)ccc2n(C(C)C)c1=O (mixture of isomers) [Compound 131]		
< 10	≥ 70	CNC(=O)COc1cc2cc(Nc3nc(N4CCC(O[C@H]5C[C@H](N6CCN(c7ccc8c(n7)C(C)N(C7CCC(=O)NC7=O)C8=O)[C@@H](C)C6)C5)CC4)ncc3Cl)ccc2n(C(C)C)c1=O (stereo partly shown) [Compound 204]		
< 10	50 to 70	CNC(=O)COc1cc2cc(Nc3nc(N4CCC(C(C)(C)N5CCC6(CCN(c7ccc8c(c7)CN(C7CCC(=O)NC7=O)C8=O)C6)C5)CC4)ncc3Cl)ccc2n(C(C)C)c1=O (stereo not shown) [Compound 53]		
< 10	< 50	CNC(=O)COc1cc2cc(Nc3nc(N4CCC(F)(CN5CCC6(CCN(c7ccc8c(c7)CN(C7CCC(=O)NC7=O)C8=O)C6)C5)CC4)ncc3Cl)ccc2n(C(C)C)c1=O (stereo not shown) [Compound 17, 2-{[6-({5-chloro-2-[4-({7-[2-(2,6-dioxopiperidin-3-yl)-1-oxo-2,3-dihydro-1H-isoindol-5-yl]-2,7-diazaspiro[4.4]nonan-2-yl}methyl)-4-fluoropiperidin-1-yl]pyrimidin-4-yl}amino)-2-oxo-1-(propan-2-yl)-1,2-dihydroquinolin-3-yl]oxy}-N-methylacetamide]		
< 10	50 to 70	CNC(=O)COc1cc2cc(Nc3nc(N4CCC(F)(CN5CCC6(CC5)CCN(c5c(F)ccc7c5CN(C5CCC(=O)NC5=O)C7=O)CC6)CC4)ncc3Cl)ccc2n(C(C)C)c1=O (stereo not shown) [Compound 151, 2-{[6-({5-chloro-2-[4-({9-[2-(2,6-dioxopiperidin-3-yl)-5-fluoro-1-oxo-2,3-dihydro-1H-isoindol-4-yl]-3,9-diazaspiro[5.5]undecan-3-yl}methyl)-4-fluoropiperidin-1-yl]pyrimidin-4-yl}amino)-2-oxo-1-(propan-2-yl)-1,2-dihydroquinolin-3-yl]oxy}-N-methylacetamide]		
